Assays:
Abutilon theophrasti = assay: Post-emergence herbicidal activity test (stem and leaf spray, pot culture); type: in vivo; conditions: 3 weeks after spraying
Outline: (§1)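 Graded 0–5 on fresh-weight growth control rate 3 weeks after a single spray-tower application at 10, 5 or 2.5 g/mu. Compounds in acetone with Tween 80 and methyl oleate synergist (1.5 liters/ha), applied to greenhouse weeds at 2- to 3-leaf stage.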

Amaranthus retroflexus = assay: as above; type: in vivo; conditions: 3 weeks after spraying
Outline: as §1

Echinochloa crusgalli = assay: as above; type: in vivo; conditions: 3 weeks after spraying
Outline: as §1

Portulaca oleracea = assay: as above; type: in vivo; conditions: 3 weeks after spraying
Outline: as §1

Setaria viridis = assay: as above; type: in vivo; conditions: 3 weeks after spraying
Outline: as §1

Trifoliumre pensL. = assay: Post-emergence herbicidal activity test (stem and leaf spray, pot culture); type: in vivo; conditions: 3 weeks after spraying
Outline: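 Pot-grown weeds in loam (pH 7), greenhouse at 20–30 °C, sprayed once post-emergence at the 2–3-leaf stage. Compound in acetone with Tween 80 plus methyl oleate oil (1.5 L/ha), applied at 10, 5 and 2.5 g/mu by spray tower. Effect scored 3 weeks after spraying, averaged over three repeats.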

SMILES | Post-emergence herbicidal activity, A. theophrasti (grade) (Abutilon theophrasti; dosage 2.5 g/mu) | Post-emergence herbicidal activity, A. theophrasti (grade) (Abutilon theophrasti; dosage 5 g/mu) | Post-emergence herbicidal activity, A. theophrasti (grade) (Abutilon theophrasti; dosage 10 g/mu) | Post-emergence herbicidal activity, A. retroflexus (grade) (Amaranthus retroflexus; dosage 2.5 g/mu) | Post-emergence herbicidal activity, A. retroflexus (grade) (Amaranthus retroflexus; dosage 5 g/mu) | Post-emergence herbicidal activity, A. retroflexus (grade) (Amaranthus retroflexus; dosage 10 g/mu) | Post-emergence herbicidal activity, E. crusgalli (grade) (Echinochloa crusgalli; dosage 2.5 g/mu) | Post-emergence herbicidal activity, E. crusgalli (grade) (Echinochloa crusgalli; dosage 5 g/mu) | Post-emergence herbicidal activity, E. crusgalli (grade) (Echinochloa crusgalli; dosage 10 g/mu) | Post-emergence herbicidal activity, P. oleracea (grade) (Portulaca oleracea; dosage 2.5 g/mu) | Post-emergence herbicidal activity, P. oleracea (grade) (Portulaca oleracea; dosage 5 g/mu) | Post-emergence herbicidal activity, P. oleracea (grade) (Portulaca oleracea; dosage 10 g/mu) | Post-emergence herbicidal activity, S. viridis (grade) (Setaria viridis; dosage 2.5 g/mu) | Post-emergence herbicidal activity, S. viridis (grade) (Setaria viridis; dosage 5 g/mu) | Post-emergence herbicidal activity, S. viridis (grade) (Setaria viridis; dosage 10 g/mu) | melting point [°C] | Post-emergence herbicidal activity, Trifoliumre pensL. (grade) (Trifoliumre pensL.; dosage 2.5 g/mu) | Post-emergence herbicidal activity, Trifoliumre pensL. (grade) (Trifoliumre pensL.; dosage 5 g/mu) | Post-emergence herbicidal activity, Trifoliumre pensL. (grade) (Trifoliumre pensL.; dosage 10 g/mu)
O=C(COc1cc(N2C(=O)C3=C(CCCC3)C2=O)c(F)cc1Cl)c1ccc(Cl)cc1 [Compound C11, 2-(4-chloro-2-fluoro-5-(2-oxo-2-(4-chlorophenyl)ethoxy)phenyl)-4,5,6,7-tetrahydro-1H-isoindole-1,3(2H)-dione] | 5 (Grade 5: the growth control rate is greater than or equal to 85%) | 5 (Grade 5: the growth control rate is greater than or equal to 85%) | 5 (Grade 5: the growth control rate is greater than or equal to 85%) | 5 (Grade 5: the growth control rate is greater than or equal to 85%) | 5 (Grade 5: the growth control rate is greater than or equal to 85%) | 5 (Grade 5: the growth control rate is greater than or equal to 85%) | 1 (Grade 1: the growth control rate is greater than or equal to 5% and less than 20%) | 2 (Grade 2: the growth control rate is greater than or equal to 20% and less than 40%) | 3 (Grade 3: the growth control rate is greater than or equal to 40% and less than 60%) | 5 (Grade 5: the growth control rate is greater than or equal to 85%) | 5 (Grade 5: the growth control rate is greater than or equal to 85%) | 5 (Grade 5: the growth control rate is greater than or equal to 85%) | 2 (Grade 2: the growth control rate is greater than or equal to 20% and less than 40%) | 3 (Grade 3: the growth control rate is greater than or equal to 40% and less than 60%) | 4 (Grade 4: the growth control rate is greater than or equal to 60% and less than 85%) | 148 to 150 | 5 (Grade 5: the growth control rate is greater than or equal to 85%) | 5 (Grade 5: the growth control rate is greater than or equal to 85%) | 5 (Grade 5: the growth control rate is greater than or equal to 85%)
O=C(COC(=O)c1cc(N2C(=O)C3=C(CCCC3)C2=O)c(F)cc1Cl)c1ccccc1 [Compound E2, 2-oxo-2-phenylethyl-2-chloro-5-(1,3-dioxo-1,3,4,5,6,7-hexahydro-2H-isoindole-2-yl)-4-fluorobenzoate] |  |  | 5 (Grade 5: the growth control rate is greater than or equal to 85%) |  |  | 5 (Grade 5: the growth control rate is greater than or equal to 85%) |  |  | 3 (Grade 3: the growth control rate is greater than or equal to 40% and less than 60%) |  |  | 5 (Grade 5: the growth control rate is greater than or equal to 85%) |  |  | 4 (Grade 4: the growth control rate is greater than or equal to 60% and less than 85%) | 133 to 136 |  |  | 4 (Grade 4: the growth control rate is greater than or equal to 60% and less than 85%)

Reference: US20240300932A1, “N-PHENYLIMINE DERIVATIVE AND PREPARATION METHOD AND USE THEREOF” (Guizhou University, priority 2023, published 2024)
